# Assay results: patent publication US20040072824A1, “Methods and compositions for the treatment of cancer” (priority 2001, published 2004)
# Where two headings read alike, the source gives them in different places.
# Experiments:
# U937 cells = assay: Antineoplastic activity, U937 cells injected in scid/scid mice, treatment from day 1; assay type: in vivo; settings: 100 mg/kg; six mice
# Protocol: Ten million U937 cells were subcutaneously injected into scid/scid mice. One injection was carried out per each of the 6 mice tested per set. The excipient or the compounds tested were administered intraperitoneally on day 1, i.e., the day of U937 cell line inoculation, of the experiment. The excipients or compounds were administered once daily. The tumor sizes were measured on day 5, day 8, day 12, day 14 and day 19 after the injection.
# [1] = system: K562, U937, MDA-DB231, BT20 and MCF7 cell lines; assay: Cytotoxic effects in multi-well plate, 6 days, ATP level (CellTiter-Glo); settings: 2x10^-9 M to 2x10^-4 M
# Protocol: In order to test the cytotoxic effects of various compounds, a test was developed in a multi-well plate. Two leukemic cell lines, namely K562 and U937, and three breast cancer cell lines, namely MDA-DB231, BT20 and MCF7 were used for this test.
# The cells were seeded at low density and were left for 24 hours to recover and reach a new logarithmic phase of growth. Various concentrations of the compounds being tested, ranging from 2×10^−9 M to 2×10^−4 M, were added in triplicate. The mixture was incubated for 6 days, during which approximately 4 doublings of the cell population occurred, to allow the cells to reach subconfluence.
# The viability of the cultured cells after the treatment by the compounds was determined by quantifying the level of ATP since the level of ATP is directly proportional to the number of viable cells present in the culture. The ATP level was quantified by using CellTiter-Glo™ (Promega) luminescent test for cell viability.
# [2] = system: blastic cells from AML patients; assay: Inhibition of viability of fresh leukemic cells (trypan blue exclusion); assay type: cell-based, human; settings: Homo sapiens, day 3; for cytotoxicity at 10 µM: 10^-5 M; for cytotoxicity at 1 µM: 10^-6 M
# Protocol: Samples for AML 1 through 5, AML 1 being the least and AML 5 being the most differentiated, were obtained. […] Cells were incubated with or without […] anti-histamine derivatives. Polaramine was included as a negative control. Cell counts were assessed by trypan blue exclusion test at day 3 after the incubation. Morphological analysis was performed using Wright-Giemsa staining on cytocentrifuge preparations. The results were expressed as % inhibition of growth as compared to negative control.
# [3] = system: MDA-MB-231 (breast cancer line); assay: Curative effects on palpable tumors, MDA-MB-231 cells in scid/scid mice; assay type: in vivo; settings: for tumor growth: daily once tumors palpable, at least at the higher concentration tested; for death of test animals: higher dosage
# Protocol: In this series of experiments, effects of various compounds of the present invention on tumor development were tested using two protocols. The first protocol is directed to the testing of curative effects of these compounds in different cell lines. In this protocol, cancerous cells are inoculated to the animals, and the inoculated animals were left without any further treatment until the development of tumors. As soon as the tumors became palable (4 mm^3), the compounds of this invention were administered daily to the animals.
# U937 = assay type: in vivo; settings: for toxicity for the animals: mouse, in vivo; for tumor growth compared to the negative control: treatment from day 1, cells inoculated after more than 24 hours, daily administration
# Protocol: The second protocol was designed to test the preventive effects of the compounds of this invention on tumorigenesis. In this protocol, the animals have been treated with various compounds of the present invention on day 1. After more than 24 hours, tumoral cells were inoculated. The administration of the compounds of this invention was maintained daily. The cell line used for this test was U937.
# [4] = 72 h, MEAN over AML patients, read-out: In Vitro Percent Inhibition of Viability, MEAN
# [5] = 72 h, patient ID 3, FAB AML2, read-out: In Vitro Percent Inhibition of Viability
# [6] = 72 h, patient ID 4, FAB AML2, read-out: In Vitro Percent Inhibition of Viability
# [7] = 72 h, patient ID 5, FAB AML2, read-out: In Vitro Percent Inhibition of Viability
# [8] = 72 h, patient ID 10, FAB AML4, read-out: In Vitro Percent Inhibition of Viability
# [9] = 72 h, patient ID 11, FAB AML5, read-out: In Vitro Percent Inhibition of Viability
# [10] = 72 h, patient ID 12, FAB AML5, read-out: In Vitro Percent Inhibition of Viability
# [11] = 72 h, patient ID 13, FAB AML5, read-out: In Vitro Percent Inhibition of Viability
# [12] = 72 h, patient ID 14, FAB AML5, read-out: In Vitro Percent Inhibition of Viability
# [13] = 72 h, patient ID 15, FAB AML5, read-out: In Vitro Percent Inhibition of Viability
# [14] = AML1, 72 h, patient ID 1, FAB AML1, read-out: In Vitro Percent Inhibition of Viability
# [15] = AML1, 72 h, patient ID 2, FAB AML1, read-out: In Vitro Percent Inhibition of Viability
# [16] = AML3, 72 h, patient ID 6, FAB AML3, read-out: In Vitro Percent Inhibition of Viability
# [17] = AML3, 72 h, patient ID 7, FAB AML3, read-out: In Vitro Percent Inhibition of Viability
# [18] = AML3, 72 h, patient ID 8, FAB AML3, read-out: In Vitro Percent Inhibition of Viability
# [19] = AML3, 72 h, patient ID 9, FAB AML3, read-out: In Vitro Percent Inhibition of Viability
SMILES,cytotoxic effect group [1],"cytotoxicity at 10 µM [2, 4] [%]","cytotoxicity at 1 µM [2, 4] [%]","cytotoxicity at 10 µM [2, 5] [%]","cytotoxicity at 1 µM [2, 5] [%]","cytotoxicity at 10 µM [2, 6] [%]","cytotoxicity at 1 µM [2, 6] [%]","cytotoxicity at 10 µM [2, 7] [%]","cytotoxicity at 1 µM [2, 7] [%]","cytotoxicity at 10 µM [2, 8] [%]","cytotoxicity at 1 µM [2, 8] [%]","cytotoxicity at 10 µM [2, 9] [%]","cytotoxicity at 1 µM [2, 9] [%]","cytotoxicity at 10 µM [2, 10] [%]","cytotoxicity at 10 µM [2, 11] [%]","cytotoxicity at 1 µM [2, 11] [%]","cytotoxicity at 10 µM [2, 12] [%]","cytotoxicity at 1 µM [2, 12] [%]","cytotoxicity at 10 µM [2, 13] [%]","cytotoxicity at 1 µM [2, 13] [%]",other results
"CC1=C(/C=C/C(C)=C/C=C/C(C)=C/C(=O)O)C(C)(C)CCC1 [ATRA, All Trans Retinoic Acid]",,,,,,,,,,,,,,,,,,,,,mice that developed a tumor (U937 cells): all six
"CN[C@H]1CC[C@@H](c2ccc(Cl)c(Cl)c2)c2ccccc21 [SQ42, sertraline]",I,61,24,83,16,84,18,26,46,53,39,68,46,73,42,11,38,25,78,0,"cytotoxicity at 10 µM [2, 14]: 42%; cytotoxicity at 1 µM [2, 14]: 17%; cytotoxicity at 10 µM [2, 15]: 59%; cytotoxicity at 1 µM [2, 15]: 20%; cytotoxicity at 10 µM [2, 16]: 35%; cytotoxicity at 1 µM [2, 16]: 11%; cytotoxicity at 10 µM [2, 17]: 82%; cytotoxicity at 1 µM [2, 17]: 15%; cytotoxicity at 10 µM [2, 18]: 72%; cytotoxicity at 1 µM [2, 18]: 36%; cytotoxicity at 10 µM [2, 19]: 79%; cytotoxicity at 1 µM [2, 19]: 38%; tumor growth [3]: decreased tumor growth; death of test animals [3]: caused the death of certain test animals; toxicity for the animals (U937): toxic for the animals; tumor growth compared to the negative control (U937): decrease in tumor growth"
"Fc1ccc([C@@H]2CCNC[C@H]2COc2ccc3c(c2)OCO3)cc1 [A37, Paroxetine]",I,55,24,67,25,62,21,43,6,50,39,32,39,76,53,53,33,35,41,9,"cytotoxicity at 10 µM [2, 14]: 50%; cytotoxicity at 1 µM [2, 14]: 0%; cytotoxicity at 10 µM [2, 15]: 41%; cytotoxicity at 1 µM [2, 15]: 25%; cytotoxicity at 10 µM [2, 16]: 54%; cytotoxicity at 1 µM [2, 16]: 19%; cytotoxicity at 10 µM [2, 17]: 63%; cytotoxicity at 1 µM [2, 17]: 3%; cytotoxicity at 10 µM [2, 18]: 56%; cytotoxicity at 1 µM [2, 18]: 12%; cytotoxicity at 10 µM [2, 19]: 97%; cytotoxicity at 1 µM [2, 19]: 53%; tumor growth [3]: decreased tumor growth; death of test animals [3]: caused the death of certain test animals; toxicity for the animals (U937): toxic for the animals; tumor growth compared to the negative control (U937): decrease in tumor growth"
